ChEMBL document CHEMBL1201862, “PubChem BioAssay data set” (2004)
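Exposure lasted 48 hours, with cells grown in 96-well plates and compounds tested at five concentrations. The concentration for 50% growth inhibition is given as GI50.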 Calls of active or inactive are those of the source. Rule as the data show it: active = GI50 up to about 1.1 µM and inactive = higher.

Tests used:
Experiment in all cases: growth of human tumour cells (NCI), 48 h
[1] = system: EKVX
[2] = system: CAKI-1
[3] = system: SF-539
[4] = system: SK-MEL-5
[5] = system: SR
[6] = system: RXF 393
[7] = system: CCRF-CEM
[8] = system: RPMI-8226
[9] = system: ACHN
[10] = system: KM12
[11] = system: HCC 2998
[12] = system: MDA-MB-435
[13] = system: SF-268
[14] = system: SK-MEL-28
[15] = system: COLO 205
[16] = system: A498
[17] = system: NCI-H226
[18] = system: MCF7
[19] = system: IGROV-1
[20] = system: HCT-15
[21] = system: SF-295
[22] = system: UACC-62
[23] = system: Hs-578T
[24] = system: Malme-3M
[25] = system: K562
[26] = system: OVCAR-5
[27] = system: HT-29
[28] = system: PC-3
[29] = system: SK-MEL-2
[30] = system: TK-10
[31] = system: OVCAR-8
[32] = system: UACC-257
[33] = system: M14
[34] = system: NCI-H460
[35] = system: SW-620
[36] = system: MOLT-4
[37] = system: MDA-N
[38] = system: OVCAR-4
[39] = system: HL-60
[40] = system: HCT-116
[41] = system: MDA-MB-231
[42] = system: SNB-19
[43] = system: NCI-H23
[44] = system: 786-0
[45] = system: U-251
[46] = system: HOP-92
[47] = system: DU-145
[48] = system: UO-31
[49] = system: LOX IMVI
[50] = system: BT-549
[51] = system: SN12C
[52] = system: A549
[53] = system: NCI/ADR-RES
[54] = system: HOP-62
[55] = system: NCI-H522
[56] = system: SK-OV-3
[57] = system: OVCAR-3
[58] = system: T47D
[59] = system: SNB-75

## COc1ccc(N(C(=O)Nc2ccc(Cl)c(Cl)c2)C2c3cccn3C(=O)N2c2ccc(Cl)c(Cl)c2)cc1 (stereo not given)
[1]
  GI50: 42.3 µM (inactive)
[2]
  GI50: 26.9 µM (inactive)
[3]
  GI50: > 100 µM (inactive)
[4]
  GI50: 70.5 µM (inactive)
[5]
  GI50: 12.4 µM (inactive)
[6]
  GI50: > 100 µM (inactive)
[7]
  GI50: 36 µM (inactive)
[8]
  GI50: 0.0724 µM (active)
[9]
  GI50: > 100 µM (inactive)
[10]
  GI50: 30.5 µM (inactive)
[11]
  GI50: 56.5 µM (inactive)
[12]
  GI50: 28.6 µM (inactive)
[13]
  GI50: 8.43 µM (inactive)
[14]
  GI50: > 100 µM (inactive)
[15]
  GI50: > 100 µM (inactive)
[16]
  GI50: 27.7 µM (inactive)
[17]
  GI50: > 100 µM (inactive)
[18]
  GI50: 43.3 µM (inactive)
[19]
  GI50: > 100 µM (inactive)
[20]
  GI50: 94 µM
[21]
  GI50: 18.3 µM (inactive)
[22]
  GI50: 41.9 µM (inactive)
[23]
  GI50: > 100 µM (inactive)
[24]
  GI50: > 100 µM (inactive)
[25]
  GI50: 13.8 µM (inactive)
[26]
  GI50: 16.4 µM (inactive)
[27]
  GI50: > 100 µM (inactive)
[28]
  GI50: 60.4 µM (inactive)
[29]
  GI50: > 100 µM (inactive)
[30]
  GI50: > 100 µM (inactive)
[31]
  GI50: > 100 µM (inactive)
[32]
  GI50: > 100 µM (inactive)
[33]
  GI50: 19.1 µM (inactive)
[34]
  GI50: 24.9 µM (inactive)
[35]
  GI50: > 100 µM (inactive)
[36]
  GI50: 1.54 µM (inactive)
[37]
  GI50: 87.7 µM (inactive)
[38]
  GI50: 30.1 µM (inactive)
[39]
  GI50: 25.1 µM (inactive)
[40]
  GI50: 17.3 µM (inactive)
[41]
  GI50: 47.8 µM (inactive)
[42]
  GI50: > 100 µM (inactive)
[43]
  GI50: 92 µM (inactive)
[44]
  GI50: > 100 µM (inactive)
[45]
  GI50: > 100 µM (inactive)
[46]
  GI50: 51.3 µM (inactive)
[47]
  GI50: > 100 µM (inactive)
[48]
  GI50: > 100 µM (inactive)
[49]
  GI50: 15.8 µM (inactive)
[50]
  GI50: > 100 µM (inactive)
[51]
  GI50: > 100 µM (inactive)
[52]
  GI50: 80.5 µM (inactive)
[53]
  GI50: > 100 µM (inactive)

## NC(N)=NC(P(=O)(O)O)P(=O)(O)O
[1]
  GI50: > 100 µM (inactive)
[2]
  GI50: > 100 µM (inactive)
[3]
  GI50: > 100 µM (inactive)
[4]
  GI50: > 100 µM (inactive)
[6]
  GI50: > 100 µM (inactive)
[54]
  GI50: > 100 µM (inactive)
[9]
  GI50: > 100 µM (inactive)
[10]
  GI50: > 100 µM (inactive)
[11]
  GI50: > 100 µM (inactive)
[13]
  GI50: > 100 µM (inactive)
[15]
  GI50: > 100 µM (inactive)
[17]
  GI50: > 100 µM (inactive)
[18]
  GI50: > 100 µM (inactive)
[19]
  GI50: > 100 µM (inactive)
[20]
  GI50: > 100 µM
[21]
  GI50: > 100 µM (inactive)
[22]
  GI50: > 100 µM (inactive)
[23]
  GI50: 0.254 µM (active)
[24]
  GI50: > 100 µM (inactive)
[26]
  GI50: > 100 µM (inactive)
[28]
  GI50: > 100 µM (inactive)
[30]
  GI50: > 100 µM (inactive)
[32]
  GI50: > 100 µM (inactive)
[33]
  GI50: > 100 µM (inactive)
[34]
  GI50: > 100 µM (inactive)
[55]
  GI50: > 100 µM (inactive)
[37]
  GI50: > 100 µM (inactive)
[56]
  GI50: > 100 µM (inactive)
[40]
  GI50: > 100 µM (inactive)
[41]
  GI50: > 100 µM (inactive)
[57]
  GI50: > 100 µM (inactive)
[42]
  GI50: > 100 µM (inactive)
[43]
  GI50: > 100 µM (inactive)
[44]
  GI50: > 100 µM (inactive)
[47]
  GI50: > 100 µM (inactive)
[48]
  GI50: > 100 µM (inactive)
[49]
  GI50: > 100 µM (inactive)
[50]
  GI50: > 100 µM (inactive)
[52]
  GI50: > 100 µM (inactive)
[53]
  GI50: > 100 µM (inactive)

## NC(=O)SCC(=O)Nc1ccc2ncccc2c1
[1]
  GI50: > 100 µM (inactive)
[2]
  GI50: > 100 µM (inactive)
[3]
  GI50: 28.1 µM (inactive)
[4]
  GI50: 43.4 µM (inactive)
[5]
  GI50: 49 µM (inactive)
[54]
  GI50: > 100 µM (inactive)
[7]
  GI50: 29.6 µM (inactive)
[8]
  GI50: 23.6 µM (inactive)
[9]
  GI50: > 100 µM (inactive)
[10]
  GI50: 45.4 µM (inactive)
[11]
  GI50: > 100 µM (inactive)
[12]
  GI50: 48.3 µM (inactive)
[13]
  GI50: 49.1 µM (inactive)
[14]
  GI50: > 100 µM (inactive)
[15]
  GI50: > 100 µM (inactive)
[16]
  GI50: > 100 µM (inactive)
[17]
  GI50: > 100 µM (inactive)
[18]
  GI50: 46.8 µM (inactive)
[19]
  GI50: > 100 µM (inactive)
[20]
  GI50: 55.1 µM
[21]
  GI50: 53.2 µM (inactive)
[22]
  GI50: 46.2 µM (inactive)
[23]
  GI50: 67.3 µM (inactive)
[24]
  GI50: 56.1 µM (inactive)
[25]
  GI50: 36.1 µM (inactive)
[26]
  GI50: > 100 µM (inactive)
[27]
  GI50: > 100 µM (inactive)
[28]
  GI50: 64.9 µM (inactive)
[29]
  GI50: 46.8 µM (inactive)
[30]
  GI50: 54.7 µM (inactive)
[31]
  GI50: > 100 µM (inactive)
[32]
  GI50: 71.3 µM (inactive)
[33]
  GI50: > 100 µM (inactive)
[34]
  GI50: 85.3 µM (inactive)
[55]
  GI50: 27.7 µM (inactive)
[35]
  GI50: > 100 µM (inactive)
[37]
  GI50: 61.5 µM (inactive)
[38]
  GI50: > 100 µM (inactive)
[39]
  GI50: > 100 µM (inactive)
[56]
  GI50: > 100 µM (inactive)
[40]
  GI50: > 100 µM (inactive)
[41]
  GI50: > 100 µM (inactive)
[57]
  GI50: 35.5 µM (inactive)
[42]
  GI50: 40.6 µM (inactive)
[43]
  GI50: > 100 µM (inactive)
[44]
  GI50: 26.8 µM (inactive)
[45]
  GI50: 21.5 µM (inactive)
[46]
  GI50: 35.2 µM (inactive)
[48]
  GI50: > 100 µM (inactive)
[49]
  GI50: 31.6 µM (inactive)
[50]
  GI50: 74.5 µM (inactive)
[51]
  GI50: 56 µM (inactive)
[52]
  GI50: > 100 µM (inactive)
[53]
  GI50: > 100 µM (inactive)

## Cc1ccc(C(=O)N/N=C(\N=N\c2ccc(C(=O)O)cc2)c2ccc(N(CCC#N)CCC#N)cc2C)cc1
[1]
  GI50: > 100 µM (inactive)
[2]
  GI50: > 100 µM (inactive)
[3]
  GI50: > 100 µM (inactive)
[4]
  GI50: > 100 µM (inactive)
[5]
  GI50: > 100 µM (inactive)
[6]
  GI50: 32.1 µM (inactive)
[54]
  GI50: > 100 µM (inactive)
[7]
  GI50: > 100 µM (inactive)
[8]
  GI50: > 100 µM (inactive)
[9]
  GI50: > 100 µM (inactive)
[10]
  GI50: > 100 µM (inactive)
[11]
  GI50: > 100 µM (inactive)
[12]
  GI50: > 100 µM (inactive)
[14]
  GI50: > 100 µM (inactive)
[15]
  GI50: > 100 µM (inactive)
[16]
  GI50: 53.8 µM (inactive)
[17]
  GI50: > 100 µM (inactive)
[18]
  GI50: > 100 µM (inactive)
[20]
  GI50: > 100 µM
[21]
  GI50: > 100 µM (inactive)
[25]
  GI50: > 100 µM (inactive)
[26]
  GI50: > 100 µM (inactive)
[27]
  GI50: > 100 µM (inactive)
[28]
  GI50: > 100 µM (inactive)
[29]
  GI50: > 100 µM (inactive)
[30]
  GI50: > 100 µM (inactive)
[31]
  GI50: > 100 µM (inactive)
[32]
  GI50: > 100 µM (inactive)
[33]
  GI50: > 100 µM (inactive)
[34]
  GI50: > 100 µM (inactive)
[35]
  GI50: > 100 µM (inactive)
[36]
  GI50: > 100 µM (inactive)
[37]
  GI50: > 100 µM (inactive)
[38]
  GI50: > 100 µM (inactive)
[39]
  GI50: 79.3 µM (inactive)
[56]
  GI50: 80.7 µM (inactive)
[58]
  GI50: 70.5 µM (inactive)
[40]
  GI50: > 100 µM (inactive)
[41]
  GI50: > 100 µM (inactive)
[57]
  GI50: 62.8 µM (inactive)
[42]
  GI50: > 100 µM (inactive)
[43]
  GI50: > 100 µM (inactive)
[44]
  GI50: > 100 µM (inactive)
[45]
  GI50: > 100 µM (inactive)
[46]
  GI50: > 100 µM (inactive)
[47]
  GI50: > 100 µM (inactive)
[59]
  GI50: 43.9 µM (inactive)
[48]
  GI50: > 100 µM (inactive)
[49]
  GI50: > 100 µM (inactive)
[50]
  GI50: 83 µM (inactive)
[51]
  GI50: > 100 µM (inactive)
[52]
  GI50: > 100 µM (inactive)
[53]
  GI50: > 100 µM (inactive)
